Patent publication US20090306392A1, “GSM INTERMEDIATES” (priority 2007, published 2009)

Tested on: γ-secretase
Assay: Screening for γ-secretase-modulating activity in SKNBE2 cells carrying APP 695-wild type
Assay type: cell-based
Conditions: SKNBE2 cells carrying the APP 695-wild type; read-out: EC 50 WTAPP

Compound	EC50 [nM]
CC(C)CC(C(=O)O)c1cc(NC2CCC(C(C)(C)C)CC2)cc(-c2ccc(C(F)(F)F)cc2)c1 (stereo not drawn) [Example 33, 2-[5-(4-tert-Butyl-cyclohexylamino)-4′-trifluoromethyl-biphenyl-3-yl]-4-methyl-pentanoic Acid]	64
CC(C)CCC(Nc1cc(-c2ccc(C(F)(F)F)cc2)cc(C(CC(C)C)C(=O)O)c1)c1cc(F)cc(F)c1 (stereo not drawn) [Example 34, 2-{5-[1-(3,5-Difluoro-phenyl)-4-methyl-pentylamino]-4′-trifluoromethyl-biphenyl-3-yl}-4-methyl-pentanoic Acid]	330
CC(C)CC(C(=O)O)c1cc(-c2ccc(C(F)(F)F)cc2)cc(C2CCCN(Cc3ccc(C(F)(F)F)cc3)C2)c1 (stereo not drawn) [Example 36, 4-Methyl-2-{4′-trifluoromethyl-5-[1-(4-trifluoromethyl-benzyl)-piperidin-3-yl]-biphenyl-3-yl}-pentanoic Acid]	510
CC(C)CCC(Nc1cc(-c2ccc(C(F)(F)F)cc2)cc(C(CC(C)C)C(=O)O)c1)c1cc(C(F)(F)F)cc(C(F)(F)F)c1 (stereo not drawn) [Example 39, 2-{5-[1-(3,5-Bis-trifluoromethyl-phenyl)-4-methyl-pentylamino]-4′-trifluoromethyl-biphenyl-3-yl}-4-methyl-pentanoic Acid]	220
CC(C)CCN(Cc1cc(F)cc(F)c1)c1cc(-c2ccc(C(F)(F)F)cc2)cc([C@@H](CC(C)C)C(=O)O)c1 [Example 40, 2-{5-[(3,5-Difluoro-benzyl)-(3-methyl-butyl)-amino]-4′-trifluoromethyl-biphenyl-3-yl}-4-methyl-pentanoic Acid]	190
(S*)4-Methyl-2-(5-{1-[4-methyl-1-(4-trifluoromethyl-phenyl)-pentyl]-piperidin-3-yl}-4′-trifluoromethyl-biphenyl-3-yl)-pentanoic Acid [Example 38]	450
